Measured values as given in patent US20260176270A1 (Exelixis, Inc., priority 2022, published 2026).
Like-named read-outs stand apart in the source and are kept apart here.

What was measured:
[1] = tested on: phosphorylation of CDK1 at Thr14 in HCC1806 cells; assay: Cell lysate AlphaLISA assay measuring inhibition of phosphorylation of CDK1 Thr14; format: cell-based; details: read-out: Cellular IC50
Protocol: (§1) Biochemical IC50 values were determined via ADP-Glo™ assay. Cellular IC50 values were determined via AlphaLISA assay.
Cell lysate AlphaLISA® assay measuring inhibition of phosphorylation of CDK1 Thr14. Inhibition of phosphorylation of CDK1 at Thr14 was determined using AlphaLISA® SureFire® Ultra™ Kit from Perkin Elmer (ALSU-PCDK1-A10K). HCC1806 cells were seeded at 2K cells per well (50 μl/well) in 384-well plates (Corning 3570) and stored overnight at 37° C. and 5% CO2. The following day, the compounds dissolved in DMSO were introduced to the cells and incubated for 4 hours at 37° C. and 5% CO2. The cells were then washed with PBS using Blue®Washer and 10 μl of lysis buffer containing protease inhibitor was added. The plate was placed on an orbital shaker (at 4° C.) for 30 minutes and stored overnight at −80° C. for complete lysing. The next day, the plates were thawed at room temperature for at least 30 min. Reagents were prepared in a dimmed light setting (<100 lumens). The assay was run by first adding 5 μl of the acceptor mix (reaction buffer 1: reaction buffer 2: activation buffer: acceptor beads 47:47:4:2), covering the plate with foil, shaking for 2 minutes and incubating at RT for 60 minutes. The donor mix (dilution buffer: donor beads 47:3) was then added at 5 μl per well, placed on the shaker for 2 minutes and incubated at RT for 60 minutes before reading the plates on a PHERAstar® plate reader. The results were normalized to DMSO (0% Inhibition) and 3 μM of reference compound.

PKMYT1 = target: T1, PKMYT1 (Homo sapiens, UniProt Q99640); assay: ADP-Glo PKMYT1 ATP-depletion assay; details: 50 nM PKMYT1, 13.3 nM CDK1, read-out: Biochemical IC50
T1 construct: PKMYT1 (93 kD, full length, N-terminal GST tag from Signal Chem); GST (N); purchased Signal Chem
T1 sequence (Q99640 1-499): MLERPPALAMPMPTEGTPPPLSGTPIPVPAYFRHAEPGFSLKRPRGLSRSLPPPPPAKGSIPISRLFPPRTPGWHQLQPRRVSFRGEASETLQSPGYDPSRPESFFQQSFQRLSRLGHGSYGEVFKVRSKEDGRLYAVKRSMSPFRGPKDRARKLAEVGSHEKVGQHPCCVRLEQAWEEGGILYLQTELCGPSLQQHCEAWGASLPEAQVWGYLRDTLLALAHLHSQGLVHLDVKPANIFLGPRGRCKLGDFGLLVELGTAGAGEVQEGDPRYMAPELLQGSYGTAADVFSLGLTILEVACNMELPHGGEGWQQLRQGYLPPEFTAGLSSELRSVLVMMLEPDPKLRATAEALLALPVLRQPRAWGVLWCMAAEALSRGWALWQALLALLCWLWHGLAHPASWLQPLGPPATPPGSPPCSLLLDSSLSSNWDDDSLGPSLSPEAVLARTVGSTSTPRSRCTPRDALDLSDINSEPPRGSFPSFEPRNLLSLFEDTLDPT
Protocol: as §1
ADP-Glo™ PKMYT1 ATP-depletion assay. The activity of PKMYT1 is measured using a luciferase-luciferin based ATP detection reaction to quantify ATP depletion resulting from kinase-catalyzed phosphoryl transfer to CDK1 or autophosphorylation of PKMYT1. The ADP generated as a byproduct of the reaction is converted to ATP and used to drive a luciferase reaction. Test compounds were dissolved in DMSO and dispensed into Corning 3824 384-well plates prior to the experiment such that the final DMSO concentration was <1%. To the compounds was added 3 μL of PKMYT1 (93 kD, full length, N-terminal GST tag from Signal Chem). The reaction was started by the addition of 2 μL of CDK1 (58 kDa, full length, N-terminal GST tag from Signal Chem) and ATP in assay buffer (50 mM Hepes, 40 mM NaCl, 10 mM MgCl2, 1 mM DTT, 0.1 mg/mL BSA, 2.5 mM MnCl2). Final assay concentrations were 50 nM PKMYT1, 13.3 nM CDK1, and 88 µM ATP. Plates were centrifuged for 1 minute at 1000 RPM and incubated at RT for 120 minutes. After the incubation period, ADP-Glo™ reagent was added and the plates were incubated for another 40 minutes before finally adding the kinase detection reagent. 30 minutes after the addition, plates were placed on a PHERAstar® plate reader and read using the Luminescence Protocol, integration time at 0.5 seconds.

| IC50 ([1]; Homo sapiens, HCC1806, 4 h) [nM] | IC50 (PKMYT1) [nM] | IC50 ([1]; 4 hours) [nM] | Compound |
| --- | --- | --- | --- |
| ≥ 5000 | ≥ 5000 |  | COc1cccc(-c2c(N)c(C(N)=O)nc3cccnc23)c1C [Compound 1, 3-Amino-4-(3-methoxy-2-methylphenyl)-1,5-naphthyridine-2-carboxamide] |
| ≥ 5000 | ≥ 5000 |  | Cc1c(-c2c3c(cc4nccnc24)C(=O)NC(C)(C)N3)ccc(F)c1O (atropisomer, axis not shown) [Compound 312] |
|  | < 50 | 50 to 500 | Cc1ccc(O)c(C)c1-c1c(N)c(C(N)=O)cc2nccnc12 (single isomer, unassigned) [Compound 83, (P)-7-Amino-8-(3-hydroxy-2,6-dimethylphenyl)quinoxaline-6-carboxamide] |
|  | < 50 | 50 to 500 | Cc1c(-c2c(N)c(C(N)=O)cc3nccnc23)ccc(F)c1O (atropisomer, axis not shown) [Compound 295] |
|  | < 50 | 50 to 500 | Cc1c(Cl)cncc1C1=c2ncccc2=NC(C(N)=O)C1N (centres unmarked) [Compound 240] |
|  | 1000 to 5000 | ≥ 5000 | Cc1c(O)cccc1-c1c(N)c(C(N)=O)cc2nc(C(F)(F)F)cnc12 (atropisomer, axis not shown; (M)) [Compound 103, (M)-7-Amino-8-(3-hydroxy-2-methylphenyl)-3-(trifluoromethyl)quinoxaline-6-carboxamide] |
| ≥ 5000 | ≥ 5000 |  | Cc1c(O)cccc1-c1c(N)c(C(N)=O)nc2nccc(O)c12 [Compound 297] |
|  | 500 to 1000 | ≥ 5000 | Cc1cc(O)c(C)c(-c2c(N)c(C(N)=O)nc3cccnc23)c1 (atropisomer, axis not shown) [Compound 286] |
| ≥ 5000 | 500 to 1000 |  | COc1ncncc1-c1c(N)c(C(N)=O)nc2cccnc12 [Compound 231] |
|  | 500 to 1000 | 1000 to 5000 | Cc1c(O)cccc1-c1c(N)c(C(N)=O)nc2cccnc12 (single isomer, unassigned) [Compound 5, (M)-3-amino-4-(3-hydroxy-2-methylphenyl)-1,5-naphthyridine-2-carboxamide] |
| ≥ 5000 | 1000 to 5000 |  | NC(=O)c1nc2c(c(-c3cc(O)cnc3F)c1N)NCCC2 (atropisomer, axis not shown) [Compound 294] |
|  | 1000 to 5000 | ≥ 5000 | Cc1ccc(O)c(C)c1-c1c(N)c(C(N)=O)cc2nccnc12 (single isomer, unassigned) [Compound 85, (M)-7-amino-8-(3-hydroxy-2,6-dimethylphenyl)quinoxaline-6-carboxamide] |
|  | 50 to 500 |  | NC(=O)c1cc2nccnc2c(-c2cc(O)ccc2Cl)c1N (atropisomer, axis not shown) [Compound 151] |
|  | ≥ 5000 |  | Cc1ccc2nc(C(N)=O)c(N)c(-c3cccc(O)c3C)c2c1 (atropisomer, axis not shown) [Compound 150] |
|  | < 50 |  | Cc1ccc(O)c(C)c1-c1c(N)c(C(N)=O)cc2nc(C)c(C)nc12 (atropisomer, axis not shown) [Compound 141] |
|  | 500 to 1000 |  | Cc1c(O)cccc1-c1c(N)c(C(N)=O)nc2nccnc12 (atropisomer, axis not shown) [Compound 195] |

The remaining lines, values behind:

| Compound | IC50 ([1]; Homo sapiens, HCC1806, 4 h) [nM] | IC50 (PKMYT1) [nM] | IC50 ([1]; 4 hours) [nM] |
| --- | --- | --- | --- |
| Cc1ccc(O)c(C)c1-c1c(N)c(C(N)=O)nc2cccnc12 [Compound 3, 3-Amino-4-(3-hydroxy-2,6-dimethylphenyl)-1,5-naphthyridine-2-carboxamide] | 50 to 500 | < 50 |  |
| NC(=O)c1cc2nccnc2c(-c2cccc3cncn23)c1N [Compound 316] | ≥ 5000 | 500 to 1000 |  |
| Cc1ccc(O)cc1-c1c(N)c(C(N)=O)cc2nccnc12 (atropisomer, axis not shown; (M)) [Compound 116, (M)-7-Amino-8-(5-hydroxy-2-methylphenyl)quinoxaline-6-carboxamide] |  | 50 to 500 | 500 to 1000 |
| Cc1cc(O)cc(C)c1-c1cc(C(N)=O)cc2nccnc12 [Compound 131] | ≥ 5000 | ≥ 5000 |  |
| Cc1ccc(-c2c(N)c(C(N)=O)nc3cccnc23)c(C)c1O (atropisomer, axis not shown) [Compound 288] |  | < 50 | 50 to 500 |
| NC(=O)c1cc2nccnc2c(-c2cc(O)ccc2Cl)c1N (atropisomer, axis not shown) [Compound 152] |  | ≥ 5000 |  |
| Cc1c(O)cccc1-c1c(N)c(C(N)=O)cc2cccnc12 (single isomer, unassigned) [Compound 63] |  | 1000 to 5000 | ≥ 5000 |
| Cc1ccc(O)c(C)c1-c1c(N)c(C(N)=O)cc2nc(C(F)(F)F)cnc12 (single isomer, unassigned) [Compound 111, (M)-7-Amino-8-(3-hydroxy-2,6-dimethylphenyl)-3-(trifluoromethyl)quinoxaline-6-carboxamide] |  | 1000 to 5000 | ≥ 5000 |
| Cc1c(O)cccc1-c1c(N)c(C(N)=O)nc2nccnc12 [Compound 11, 7-Amino-8-(3-hydroxy-2-methylphenyl)pyrido[2,3-b]pyrazine-6-carboxamide] | 50 to 500 | < 50 |  |
| Cc1ccc(O)c(C)c1-c1c(N)c(C(N)=O)nc2ccc(F)cc12 [Compound 20, 3-Amino-6-fluoro-4-(3-hydroxy-2,6-dimethylphenyl)quinoline-2-carboxamide] |  | 50 to 500 | 1000 to 5000 |
| NC(=O)c1cc2nccnc2c(-c2c(Cl)ccc3[nH]ncc23)c1N (atropisomer, axis not shown) [Compound 246] |  | 50 to 500 | 500 to 1000 |
| COc1ccnc2c(-c3cccc(O)c3C)c(N)c(C(N)=O)cc12 (atropisomer, axis not shown) [Compound 325] |  | 1000 to 5000 | 1000 to 5000 |
| Cc1ccc2nc(C(N)=O)c(N)c(-c3cccc(O)c3C)c2c1 [Compound 55, 3-Amino-4-(3-hydroxy-2-methylphenyl)-6-methylquinoline-2-carboxamide] | 1000 to 5000 | 50 to 500 |  |
| NC(=O)c1nc2cccnc2c(-c2cccc3[nH]nc(F)c23)c1N [Compound 306] |  | 50 to 500 | ≥ 5000 |
| Cc1c(O)cccc1-c1c(N)c(C(N)=O)cc2nc(C(F)(F)F)cnc12 [Compound 189] |  | 50 to 500 | 500 to 1000 |
| Cc1cnc2c(-c3cccc(O)c3C)c(N)c(C(N)=O)cc2n1 (atropisomer, axis not shown) [Compound 201] |  | ≥ 5000 | ≥ 5000 |
| Cc1c(O)cccc1-c1c(N)c(C(N)=O)cc2nc(C(F)(F)F)cnc12 (atropisomer, axis not shown; (P)) [Compound 100, (P)-7-Amino-8-(3-hydroxy-2-methylphenyl)-3-(trifluoromethyl)quinoxaline-6-carboxamide] |  | 50 to 500 | 50 to 500 |
| Cc1ccc(O)c(C)c1-c1c(N)c(C(N)=O)cc2nc(C)c(C)nc12 (atropisomer, axis not shown) [Compound 140] |  | ≥ 5000 |  |
| Cc1ccc2nc(C(N)=O)c(N)c(-c3cccc(O)c3C)c2c1 (atropisomer, axis not shown) [Compound 149] |  | 50 to 500 |  |
| Cc1c(O)cccc1-c1c(N)c(C(N)=O)nc2nccnc12 (atropisomer, axis not shown) [Compound 194] |  | < 50 |  |
| Cc1ccc(O)c(C)c1-c1cc(C(N)=O)cc2nccnc12 (atropisomer, axis not shown) [Compound 165] |  | ≥ 5000 |  |
